Columns and labels:
HEL cells = assay: Differentiation inductivity, lineage receptor expression by FACS, HEL cells; format: cell-based, human; conditions: 5 μg/ml (R)-NALPCE 5 days or 10 nM PMA 3 days
Experimental: HEL cells were aliquoted at a density of 3×10^5 cells per well in 6-well plates and treated separately with 5 μg/ml of (R)-NALPCE and 10 nM of 12-phorbol myristate-13-acetate (PMA) (Calbiochem.), followed by incubation for 5 and 3 days, respectively. After centrifugation (1,000 rpm, 10 min), cell pellets thus obtained were washed three times with 0.01% bovine serum albumin (BSA) in PBS and incubated with 10 μl of anti-CD61-fluorescein-5-isothiocyanate (FITC) (Dako Chemicals, Carpenteria, Calif.), 20 μl of anti-CD16-Cy-Chrome (Cy) (BD Pharmingen), 10 μl of anti-glycophorin ACD235a-phycoerythrin (PE) (Dako Chemicals, Carpenteria, Calif.), and 20 μl of anti-CD14-allophycocyanin (APC) (BD Pharmingen) in 200 μl of 0.01% bovine serum albumin (BSA)-PBS at 4° C. for 50 min with spinning so as to achieve homogenous fluorescent staining over the cells. After centrifugation (1,000 rpm, 10 min), the cell pellets thus obtained were washed three times with 0.01% bovine serum albumin (BSA) in PBS. Fluorescence was analyzed on a fluorescence-activated cell sorter (FACS) (Aria) using a Cellquest program.

K562 cells = assay: Differentiation inductivity, lineage receptor expression by FACS, K562 cells; format: cell-based, human; conditions: K562 cells, 40 μg/ml (R)-NALPCE or 30 nM PMA, 4 days
Experimental: K562 cells were aliquoted at a density of 2×10^5 per well in 6-well plates and treated with 40 μg/ml of (R)-NALPCE or 30 nM of PMA (12-phorbol myristate-13-acetate, Calbiochem.), followed by incubation for 4 days. After centrifugation (1,000 rpm, 10 min), the cell pellets thus obtained were washed three times with 0.01% bovine serum albumin (BSA) in PBS. The cells were incubated with 10 μl of anti-CD41-fluorescein-5-isothiocyanate (FITC) (Dako Chemicals, Carpenteria, Calif.), 20 μl of anti-CD16-Cy-Chrome (Cy) (BD Pharmingen), 10 μl of anti-glycophorin ACD235a-phycoerythrin (PE) (Dako Chemicals, Carpenteria, Calif.), and 20 μl of anti-CD14-allophycocyanin (APC) (BD Pharmingen) in 200 μl of 0.01% bovine serum albumin (BSA)-PBS at 4° C. for 50 min while spinning to realize homogeneous fluorescent staining. After centrifugation (1,000 rpm, 10 min), the cell pellets thus obtained were washed three times with 0.01% bovine serum albumin (BSA) in PBS. Fluorescence was analyzed on a fluorescence-activated cell sorter (FACS) (Aria) using a Cellquest program.

CCCCCCCCCCCCCCCCCC(=O)NC(COP(=O)([O-])OCC[N+](C)(C)C)C(=O)OC [(R)-NALPCE, N-steroyl-O-phosphocholine-D-serine methyl ester]
expression of CD61, CD235a, CD16 and CD14 receptors (HEL cells): CD61 and CD16 were specifically expressed
expression of CD41, CD16, glycophorin A and CD14 receptors (K562 cells): CD41 and CD16 were specifically expressed
